Results: patent publication US7868047B2, “Anti-inflammatory and psoriasis treatment and protein kinase inhibition by hydroxy stilbenes and novel stilbene derivatives and analogues” (Welichem Biotech Inc., priority 1999, dated 2011)
Values joined by “and” are separate entries in the source; they are usually repeats but may differ in a detail not shown here. Identical values can stand only once.

Columns and labels:
TPA-induced ear edema = TPA-induced ear edema model; type: in vivo, mouse; details: 0.3% single topical, TPA 0.01%, ear thickness 6 hours after TPA
Experimental: Experiment: Three representative compounds, 5-(2-phenylethenyl)-2-1-propyl-1,3-benzenediol, as previously reported, a closely related stilbene derivative (WO 0142231) and compound 39B, a novel compound of the current invention, were assayed against the edema on female mice (Balb/c) aged 10-12 weeks, using 0.01% Calcitriol (a commercial standard) as a positive control. Phorbol-12-myristate-13-acetate (TPA) was used as the edema inducer. TPA and the test compounds were all dissolved in 100% ethanol and 20 μl applied on the right ear of the mouse with six mice per group. The TPA concentration used was 0.01% (w/v). Ear thickness was measured 6 hours after TPA treatment to determine if edema was decreased. In each experiment replicated groups of TPA treated mice were treated with either 5-(2-phenylethenyl)-2-1-propyl-1,3-benzenediol, Calcitriol, compound 39B or only ethanol, and the level of inhibition was obtained by measuring the thickness of the ear and expressing the difference in thickness of the treated ear from that of the ethanol treated ear, as a percentage.

DSS-induced IBD = assay: DSS (2%) IBD mouse model, preventive experiment; type: in vivo; details: 500 mg/kg/day oral with 2% DSS, day 7
Experimental: To assess the in vivo efficacy for preventive and therapeutic activities of these compounds on IBD, two experiments were designed and tested using the dextran sulfate sodium (DSS) experimental mouse model for human IBD. For the preventive experiment, compounds 9A and 39B were simultaneously administrated orally with 2% DSS at the dose of 500 mg/kg/day. Vehicle alone and glucocorticoid (dexamethasone 20 mg/kg/day) were used as controls. At day 7, mice were sacrificed, examined for stool appearance, diarrhea and colon macroscopic damage including ulceration, inflammation and adhesion. Colon samples were also taken and fixed in 10% formalin for histological assessment of architecture, ulceration, inflammation and serosal damage.

eczema = assay: 1% cream on volunteer with eczema; type: in vivo, human; details: topical, right side, control triamcinolone acetonide 0.5% left side
[1] = tested on: acute colon inflammation induced by 5% DSS; assay: DSS (5%) acute colon inflammation mouse model, therapeutic experiment; type: in vivo; details: for Bleeding score / Diarrheal score: day seven, mean ± SEM, n = 9, 1 = normal; for Bleeding score: 2 = bloody stool, 4 = gross bleeding; for Diarrheal score: 2 = loose stools, 4 = diarrhea
Excerpt: To assess the in vivo efficacy for preventive and therapeutic activities of these compounds on IBD, two experiments were designed and tested using the dextran sulfate sodium (DSS) experimental mouse model for human IBD.
For the therapeutic experiment a further experiment was done to test different doses of 9A on severe, acute intestinal inflammation in mice induced by a high dose of DSS (5%). In this experiment, drug treatment started from day 3 post DSS induction when disease symptom was established. 9A (200 mg/kg or 100 mg/kg) was administered through oral […] once daily and a commercial drug, sulfasalazine (SASP, 100 mg/kg/day) was used as positive control. Experiment was terminated at day 7 and the efficacy was assessed.

psoriasis = assay: 1% cream on volunteers with psoriasis; type: in vivo, human; details: topical, once per day, vs control cream
Experimental: The biological activity of the compounds of this invention can be determined by measurement of the effect of the test compound in vivo because there is no animal model suitable for the diseases. The compounds were tested on volunteers. In these tests, representative compound of this invention, i.e., 3,5-dihydroxy-4-isopropylstilbene is active in reducing or eliminating symptoms of psoriasis and eczema.
A 1% cream of 3,5-dihydroxy-4-isopropylstilbene was prepared for tests on volunteers. Three volunteers, each with a long psoriasis history, were recruited for the tests. Neither of them was on any medication a month before the initiation of the test.
Volunteer 1, person, with scalp psoriasis for more than 15 years. They had used various conventional drugs and treatments, include, steroids, phototherapy and other medicine during the course of their illness. All of these treatments had no or very limited effect on this psoriasis.
Volunteer 2, person, with plaques on their back. They had used hydrocortisone before and stopped using it because of side effects.
The volunteers were treated once per day by applying the creams once per day on top of the affected area with the basic cream as the control (except for volunteer 3). […] The cream of the invention contained 1% 3,5-dihydroxy-4-isopropylstilbene. The control cream was identical except that it contained no 3,5-dihydroxy-4-isopropylstilbene. […]

TNF-α = assay: Endotoxemia mouse model, serum TNF-α after LPS; type: in vivo
Excerpt: The in vivo endotoxemia model used in these studies represents a mouse showing the early inflammatory response. Such severe infection can be caused by Gram negative bacteria may lead to the development of septic shock. This toxicity is caused by the lipopolysaccharide (LPS) component of the bacterial cell wall, and injection of LPS into mice can mimic the physiological response typical of the septic shock syndrome. LPS-mediated toxicity is due to the release of cytokines such as TNF-α, IL-1 and IFN-γ by activated macrophages, and the degree of toxicity can be measured by the level of these cytokines in the blood.
Experiment: Test compounds were dissolved and formulated in 50% PEG-400 in water. Female Balb/c mice (˜20 g) were first injected separately intraperitoneally (IP) with 25 mg/kg of each test compound, then challenged by injection with 40 mg/kg lipopolysaccharide (LPS) (IP) 30 minutes later. One drug injection with 12.5 mg/kg of test compound was done at the same time as (LPS challenge and two subsequent sequential injections at 30 minutes intervals. Positive control of dexamethasone was administered in a similar manner starting at 0.4 mg/kg and subsequently 0.2 mg/kg for three additional injections. Mice were sacrificed and blood collected by cardiac puncture 150 minutes after LPS challenge. The serum TNF-α levels were determined by ELISA. Each test group was comprised of six mice. Group of mice injected with the vehicle alone was used as negative control.

VEGF = VEGF protein expression of keratinocytes induced by rhTGF-α (ELISA); type: cell-based, human; details: for VEGF: supernatant, rhTGF-α 100 ng/ml, 24 h
Experimental: Experiment: Compound 39B was dissolved in DMSO, diluted with keratinocyte-serum-free medium (KC-SFM) to 10^3 μg/ml, further diluted with the culture medium and tested at the following concentrations: 10, 1, 0.1 and 0.01 μg/ml. Prime cultures of keratinocytes were obtained from a commercial source and maintained with KC-SFM at a cell density of 10^6/ml. In the test, cells were cultured in 24-well plates and incubated at 37° C. in 5% CO2 first for 4 h, and then treated with rhTGF-α (final concentration 100 ng/ml) and the test compound at different concentrations (0.01-10 μg/ml). Medium without test compound was the negative control. The culture supernatant from each well was separately collected after an additional 24 h incubation and centrifuged at 2000 rpm for 5 minutes before measuring the VEGF concentration. VEGF concentration in the supernatant in each well was calculated based on measurements taken using an ELISA kit, according to the manufacturer's instructions.

[2] = tested on: human white blood cells (WBC); assay: Migration of human white blood cells induced by leukotriene B4 (agarose plate); type: cell-based; details: for % Migration: towards LTB4, 5 h
Experimental: Experiment: WBC collected from donors was mixed with equal volume of 3% dextran (in 0.15M NaCl). The red blood cells were sedimented (45 minutes, room temperature) and removed. Any remaining red blood cells in the plasma were removed by adding 150 mM of Tris-NH4Cl. The leukocyte-rich plasma was washed twice in Hanks balanced salts solution containing 20 mM HEPES. The WBC was then transferred to RPMI-1640 medium and adjusted to a density of 5×10^7 cells/ml. An agarose plate assay system (Nelson et al. 1978) was used to measure the WBC migration. Briefly, a 0.8% agarose solution was prepared with complete RPMI-1640 cell culture medium. About 3.5 ml of this agarose solution was transferred to a glass slide before it solidified. Wells were made on the slide in a 3×6 array fashion (02 mm, inter-well distance 3 mm) once the agarose had solidified. LTB4 was dissolved in anhydrous ethanol to 104 ng/ml and further diluted with the RPMI-1640 medium to 10 ng/ml for the test. Compound 39B was dissolved in DMSO, diluted with RPMI-1640 to 10^3 μg/ml and tested at the following concentrations: 100, 10, 1, 0.1 and 0.01 μg/ml. Ten microlitres of cell suspension with different concentrations of compound 39B was added to each well of the center row of the three rows of wells. The same volume of LTB4 in RPMI-1640 medium or the medium alone was added to wells in the other rows and served as controls. After 5 h incubation (5% CO2, 37° C.) the test slides were fixed with 100% methanol (30 min) and dried at 4° C. (overnight). The slides were then examined microscopically. The migration index was defined as the average distances that cells migrated towards the positive LTB4 well divided by that of spontaneous migration. The percentage migration was compared between treatment and the non-drug control. The dose-effect relationship was determined by plotting the percentage chemotaxis vs concentration for IC50 values.

IFN-γ = IFN-γ production by PHA-stimulated human PBMC (ELISA); type: cell-based; details: PHA-stimulated human PBMC, supernatant after 48 hours, ELISA
Experimental: (§1) (a). Effect on proliferation and IFN-γ production of human peripheral blood mononuclear cells (PBMC) stimulated by phytochemagglutinin (PHA).
(§2) Experiment: PBMC were cultured with PHA and cultured with titrated concentrations of compounds or solvent, or media alone using standard cell culture techniques. The MTT assay was performed after 48 hours of culture. Supernatants were collected after 48 hours of culture and levels of IFN-γ were assayed by ELISA.

human PBMC = assay: Proliferation of PHA-stimulated human PBMC (MTT); type: cell-based; details: PHA-stimulated, MTT after 48 hours; read-out: IC50 against human PBMC proliferation
Experimental: as §1, §2

For `CC(C)c1c(O)cc(/C=C/c2ccccc2)cc1O` [Compound 9A, 3,5-Dihydroxy-4-isopropyl-trans-stilbene], the “% edema inhibition” value (TPA-induced ear edema) was 8%, the “macroscopic and microscopic diseases scores” value (DSS-induced IBD) was “significantly decreased” and the “effect on eczema, volunteer 3” value (eczema) was “disease symptoms completely disappeared by week 2”. It also gave a Bleeding score ([1]; 100 mg/kg oral daily) of 3.3 ± 0.37, a Diarrheal score ([1]; 100 mg/kg oral daily) of 2.0 ± 0.73 and a Bleeding score ([1]; 200 mg/kg oral daily) of 3.2 ± 0.49. For the same compound, the Diarrheal score ([1]; 200 mg/kg oral daily) was 2.4 ± 0.45, the “survival rate vs control treatment” value ([1]; 5% DSS, treatment from day 3) was “significantly higher survival rate” and the survival rate ([1]; daily oral treatment from day 3 post 5% DSS, vehicle control 33%) was 67%. For the same compound, the “effect on psoriasis, volunteer 1 (scalp psoriasis)” value (psoriasis) was “completely clearance in 7 days” and the “effect on psoriasis, volunteer 2 (plaques on back)” value (psoriasis) was “significant improvement of the psoriasis”.
For `CC(C)c1c(O)cc(C=Cc2ccc(F)cc2)cc1O` [Compound 39B], the “TNF-α levels in mice blood induced by LPS” value (TNF-α; P<0.05) was “decreased significantly”, the TNF-α (TNF-α; serum 150 min after LPS 40 mg/kg IP, compounds 25 mg/kg then 3 x 12.5 mg/kg IP (dexamethasone 0.4 then 3 x 0.2 mg/kg)) was 601.6 ± 211.9 pg/mL and the VEGF (VEGF; 1.6 μM) was 34.4 ± 2.0 pg/mL. For the same compound, the VEGF (VEGF; 8 μM) was 33.6 ± 1.8 pg/mL, the “decrease of VEGF protein concentration” value (VEGF; 40 μM, 24-h treatment) was 100% and the VEGF (VEGF; 40 μM) was 0 ± 0 pg/mL. For the same compound, the “inhibition of migration of WBC towards LTB4” value [2] was “dose-dependent manner”, the “% Migration” value ([2]; 0.32 μM) was 88.46 ± 18.6% and the “% Migration” value ([2]; 1.6 μM) was 83.85 ± 15.9%. The “% Migration” value ([2]; 8 μM) was 58.46 ± 4.3%, the “% Migration” value ([2]; 40 μM) was 13.07 ± 5.8% and the “% edema inhibition” value (TPA-induced ear edema) was 85% and 85.2%. For the same compound, the “macroscopic and microscopic diseases scores” value (DSS-induced IBD) was “significantly decreased”, the IC50 (IFN-γ) was 4.16 µM and the IC50 (human PBMC) was 7.36 µM.
